Series [1] in a line: Stability in rat liver microsomes. Format: in vitro ADME. The settings on record: rat liver microsomes 0.5 mg protein/mL, 1 μM test substance, β-NADPH 1 mM, 37° C.; for half-life at 1 μM: read-out: Rat t1/2. In short, it runs like this: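 Incubations at 37 °C used canine or rat liver microsomes, phosphate buffer containing 3 mM MgCl2, NADPH (no-NADPH controls at 0 and 60 min), and compound from a 10 μM working solution.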
A general note: Liver microsomes are a subcellular fraction often used to study metabolism.

The next series concerns the target T1, THP-1 cell NLRP3 (Homo sapiens, UniProt Q96P20).
T1 construct: endogenous in cells; host or cells: THP-1 cells, PMA-differentiated, stimulated with LPS and nigericin
Nature of the series: Inhibitory activity against cell NLRP3 inflammasomes in THP-1 cells (LPS + nigericin, ELISA of supernatant). The following applies: PMA-differentiated THP-1 cells, LPS 500 ng/mL 3 h, compound 1 h, nigericin 30 min; human IL-10 (so in the source) in supernatant by ELISA. Format: cell-based. In short, it runs like this:
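PMA-differentiated (10 ng/mL, 16 h) THP-1 cells primed with 500 ng/mL LPS for 3 h in serum-free medium, then compound for 1 h (DMSO stock diluted 1:1000). Nigericin added for 30 min at 37 °C; IL-1β (printed as IL-10) in supernatant measured by ELISA.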
For orientation: In an ELISA, binding on a coated surface is turned into a signal by an enzyme label.

The IC50 is the concentration that inhibits the measured activity by half. The term microsomal CLint denotes a measure of how fast metabolising enzymes remove a compound, apart from limits set by blood flow.

T1 sequence (Q96P20 whole entry): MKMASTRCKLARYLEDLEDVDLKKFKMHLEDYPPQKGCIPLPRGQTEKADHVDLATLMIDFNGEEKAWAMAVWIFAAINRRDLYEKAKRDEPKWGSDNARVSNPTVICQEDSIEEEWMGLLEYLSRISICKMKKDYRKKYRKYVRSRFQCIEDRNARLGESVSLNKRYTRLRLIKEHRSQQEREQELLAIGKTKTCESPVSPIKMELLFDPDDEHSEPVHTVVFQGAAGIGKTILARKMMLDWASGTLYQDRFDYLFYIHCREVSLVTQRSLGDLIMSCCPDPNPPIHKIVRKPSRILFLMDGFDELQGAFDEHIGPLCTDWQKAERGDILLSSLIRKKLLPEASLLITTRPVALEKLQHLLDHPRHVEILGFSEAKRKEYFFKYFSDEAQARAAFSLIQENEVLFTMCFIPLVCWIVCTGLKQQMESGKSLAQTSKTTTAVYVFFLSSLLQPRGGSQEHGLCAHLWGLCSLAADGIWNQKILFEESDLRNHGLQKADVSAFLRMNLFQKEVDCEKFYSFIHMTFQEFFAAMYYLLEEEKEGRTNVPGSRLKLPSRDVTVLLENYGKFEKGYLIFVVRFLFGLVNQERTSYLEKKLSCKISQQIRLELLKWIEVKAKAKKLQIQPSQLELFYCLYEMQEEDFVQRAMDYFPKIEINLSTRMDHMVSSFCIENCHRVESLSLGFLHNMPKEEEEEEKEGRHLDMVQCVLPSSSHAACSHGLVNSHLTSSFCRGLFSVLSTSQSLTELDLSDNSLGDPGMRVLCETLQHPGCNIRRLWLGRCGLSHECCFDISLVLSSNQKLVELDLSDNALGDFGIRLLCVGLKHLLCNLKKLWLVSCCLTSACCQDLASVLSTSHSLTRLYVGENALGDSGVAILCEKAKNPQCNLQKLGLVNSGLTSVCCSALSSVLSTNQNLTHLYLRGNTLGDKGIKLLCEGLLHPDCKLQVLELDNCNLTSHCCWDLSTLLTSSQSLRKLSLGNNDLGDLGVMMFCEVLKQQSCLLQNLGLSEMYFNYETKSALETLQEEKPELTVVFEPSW

On to `C#Cc1ccc(-c2nnc(N[C@@H]3CCCN(C)C3)c(=O)n2C)c(O)c1` [Compound 23, (R)-3-(4-ethynyl-2-hydoxyphenyl)-4-methyl-6-((1-methylpiperidin-3-yl)amino)-1,2,4-triazin-5(4H)-one], for which the “Rat t1/2” value in series [1] is “→∞”. Also, the IC50 at THP-1 cell NLRP3 amounted to 2.4 nM.

On to `C#Cc1ccc(-c2nnc(N[C@@H]3CCCN(CCO)C3)cc2C2CC2)c(O)c1` [Compound 45, (R)-2-(4-Cyclopropyl-6-((1-(2-hydroxyethyl)piperidin-3-yl)amino)pyridazin-3-yl)-5-ethynylphenol], for which, in series [1], the microsomal CLint at 1 μM turned out to be 6.8 µL/min/mg and the half-life at 1 μM came to 3.4 h. Further, the IC50 at THP-1 cell NLRP3 worked out at 0.7 nM.

As to `C#Cc1ccc(-c2nnc(N[C@@H]3CCCN(C)C3)cc2C(C)C)c(O)c1` [Compound 81, (R)-5-ethynyl-2-(4-isopropyl-6-((1-methylpiperidin-3-yl)amino)pyridazin-3-yl)phenol], in series [1], the microsomal CLint at 1 μM was 3 µL/min/mg and the half-life at 1 μM is 7.7 h. For the same compound, at THP-1 cell NLRP3, the IC50 was 1.1 nM.

Consider `C#Cc1ccc(-c2nnc(N[C@@H]3CCCN(C)C3)c(C#N)c2C)c(O)c1` [Compound 103, (R)-6-(4-ethynyl-2-hydroxyphenyl)-5-methyl-3-((1-methylpiperidin-3-yl)amino)pyridazine-4-carbonitrile], for which, in series [1], the microsomal CLint at 1 μM was 8.2 µL/min/mg and the half-life at 1 μM was determined as 2.82 h. The IC50 on THP-1 cell NLRP3 was determined as 0.6 nM.

These data come from patent publication US20260167637A1, “NLRP3 INFLAMMASOME INHIBITOR AND USE THEREOF” (TransThera Sciences (Nanjing), Inc., priority 2022, published 2026).
